Common to all, as to type: in vivo, Sprague Dawley rats
Test [1] has as its system intracellular Ang II (iAng II) in cardiac myocytes. In words: Measurement of iAng II in cardiac myocytes isolated from STZ-diabetic rat hearts (competitive ELISA). Conditions: for iAng II levels in cardiac myocytes: STZ-diabetic rats treated daily for 7 days (insulin 2-5 U BID SC; candesartan 1 mg/kg IP; aliskiren 30 mg/kg oral; benazepril 10 mg/kg oral), mean±SE, diabetic untreated 0.59±0.01, control 0.06±0.01; for iAng II synthesis, blocked or not (result in words): diabetic rats, summary statement. The procedure:
(§1) Diabetes is induced by a single injection of streptozotocin (STZ, 65 mg/kg body weight, IP) dissolved in 0.1 M sodium citrate buffered saline (pH 4.5), in adult male Sprague Dawley rats (250-300 g). Control animals receive buffered saline alone. Diabetes is confirmed by sustained blood glucose levels >15 mmol/L, as determined 48 h after STZ injection and on alternate days thereafter. […] After 7 days, animals are weighed and anesthetized using ketamine/xylazine (50/5 mg/kg). Hearts are isolated and weighed before perfusion, the latter using the Langendorff methodology.
Hearts are isolated and perfused with Krebs-Henseleit bicarbonate buffer, followed by digestion with collagenase II (0.1% w/v). Myocytes are separated from non-myocytes by differential centrifugation at 25×g. […] The pellet containing myocytes is processed for Ang II extraction, as described by Singh et al in Am J Physiol Heart Circ Physiol 293:H939-H948, 2007. Cells were lysed in ice-cold 1 M acetic acid, containing a protease inhibitor cocktail (Sigma), by sonication (2 pulses of 5 sec each). The lysate is sedimented at 20,000×g for 10 min and the supernatant is dried in a vacufuge, followed by reconstitution in 1% acetic acid. The samples are applied to a conditioned DSC-18 column (Supelco), washed, and eluted with methanol. The eluted samples are dried and reconstituted in PBS for ELISA. For isolation of Ang II from plasma, an equal volume of 2% acetic acid is added to plasma, followed by filtration through Amicon Ultra-15 filters. The filtrate is applied to DSC-18 columns and Ang II is eluted, as described for the cell lysates. […] Ang II is measured by quantitative, competitive ELISA, using a specific anti-Ang II antibody (Peninsula Labs), as previously described in Am J Physiol Heart Circ Physiol 293:H939-H948, 2007. ELISA is performed on protein-A and anti-Ang II antibody-coated 96-well dishes. Competitive binding of synthetic biotinylated Ang II, in the presence of the extracted peptide, is detected with streptavidin-horseradish peroxidase conjugate. A standard curve, generated from binding of a constant amount of biotinylated Ang II with increasing concentrations of non-biotinylated synthetic Ang II, is used to calculate the concentration of the peptide in the sample. The concentration of Ang II in the cell lysates is expressed as fmoles per milligram of heart wt and in plasma as fmoles per milligram of plasma proteins.
Ang II levels in cardiac myocytes, which are isolated after perfusion of the hearts and enzymatic dispersion, correspond to Ang II present intracellularly. To determine the source of iAng II, i.e., intracellular synthesis or AT1-mediated internalization, one group of diabetic animals is treated with the AT1 antagonist candesartan to prevent receptor-mediated uptake.

For test [2], the system named is Superoxide production in the hearts. Kind of test: Reactive oxygen species detection in the heart by dihydroethidium (DHE) staining. Conditions: STZ-diabetic rats; for DHE fluorescence, Mean: 7 days of treatment, frozen heart sections, 10 μM DHE, control 17.65, diabetic no treatment 68.6; for superoxide production / oxidative stress (result in words): DHE staining of heart sections.

Test [3] has as its system cardiac myocytes. Kind of test: Cardiac myocyte apoptosis in heart sections (TUNEL assay and cleaved caspase-3 staining). Conditions: STZ-diabetic rats; for Caspase-3 staining, Mean / TUNEL assay, Mean: 7 days of treatment, heart sections; for Caspase-3 staining, Mean: control 7, diabetic no treatment 28; for TUNEL assay, Mean: control 8.5, diabetic no treatment 33.
In test [4] the test system is Cardiac interstitial fibrosis. Kind of test: Cardiac interstitial fibrosis by Masson's trichrome staining, graded on a scale of 0-4. Conditions: for degree of fibrosis (average grade): STZ-diabetic rats after one week of diabetes, scale 0-4, diabetic untreated grade 1.5, control grade 0; for diabetes-induced cardiac fibrosis (result in words): diabetic rats, summary statement. On the procedure: as §1
Cardiac interstitial fibrosis is determined by Masson's trichrome staining on 5 μm paraffin-embedded sections. The extent and degree of fibrosis is graded on a scale of 0-4. Grade 0 signifies no apparent collagen fiber proliferation except for small islets of fibrous tissue around the capillaries, as well as an intercellular single layer of collagenous tissue, as in normal myocardium. Focal and minimal fibrosis is graded as 1, mild patchy fibrosis as grade 2, moderate diffuse fibrosis as grade 3 and the most prominent fibrosis, covering major area of the specimen, is classified as 4. A minimum of three sections per heart, with five fields per section, and three animals per experimental group, are analyzed and results presented as an average grade.
After one week of diabetes, the overall staining for fibrosis is enhanced in hearts from diabetic rats (grade 1.5), compared to control animals (grade 0). […] Candesartan and benazepril reduces the degree of fibrosis (grade 0.43 and 0.88, respectively), whereas aliskiren has a more pronounced reduction of fibrosis (grade 0.25) in diabetic rat hearts.

From patent US20100093603A1, “USE OF ORGANIC COMPOUNDS” (priority 2008, published 2010) come the findings set out here.

For the compound `COCCCOc1cc(C[C@@H](C[C@H](N)[C@@H](O)C[C@H](C(=O)NCC(C)(C)C(N)=O)C(C)C)C(C)C)ccc1OC` [aliskiren, 2(S),4(S),5(S),7(S)—N-(3-amino-2,2-dimethyl-3-oxopropyl)-2,7-di(1-methylethyl)-4-hydroxy-5-amino-8-[4-methoxy-3-(3-methoxy-propoxy)phenyl]-octanamide], in test [1], the “iAng II levels in cardiac myocytes” value was found to be 0.12±0.02 fmole/mg heart wt and the “iAng II synthesis, blocked or not (result in words)” value is on record as “blocked”. In test [2], the “DHE fluorescence, Mean” value is listed as 22.7 Arbitrary units and the “superoxide production / oxidative stress (result in words)” value (“superoxide production / oxidative stress” below) is listed as “blocks it completely”. Also, in test [3], the “Caspase-3 staining, Mean” value was 18 positive cells/mm^2 and the “TUNEL assay, Mean” value worked out at 21.3 positive cells/mm^2. Further, in test [4], the “degree of fibrosis (average grade)” value is on record as 0.25 grade and the “diabetes-induced cardiac fibrosis (result in words)” value is “complete inhibition”.

Turning to “insulin: type 1 diabetes therapeutic agent, used to normalize blood glucose in STZ-treated rats”, in test [2], the “DHE fluorescence, Mean” value was 26.7 Arbitrary units and the “superoxide production / oxidative stress” value is “prevented”. Besides, in test [3], the “Caspase-3 staining, Mean” value turned out to be 14 positive cells/mm^2 and the “TUNEL assay, Mean” value amounted to 20 positive cells/mm^2. For the same compound, in test [3] (by both TUNEL assay and caspase-3 staining), the “number of apoptotic cells (result in words)” value is on record as “reduces the number of apoptotic cells, but does not prevent apoptosis completely”. In test [4], the “degree of fibrosis (average grade)” value is listed as 0.04 grade.

`CCOc1nc2cccc(C(=O)O)c2n1Cc1ccc(-c2ccccc2-c2nnn[nH]2)cc1` [candesartan]: the “iAng II levels in cardiac myocytes” value in test [1] worked out at 0.43±0.05 fmole/mg heart wt. In test [2], the “DHE fluorescence, Mean” value turned out to be 37.7 Arbitrary units. For the same compound, in test [3], the “Caspase-3 staining, Mean” value came out at 18.5 positive cells/mm^2 and the “TUNEL assay, Mean” value was 24 positive cells/mm^2. Also, the “degree of fibrosis (average grade)” value in test [4] was found to be 0.43 grade.

For `CCOC(=O)[C@H](CCc1ccccc1)N[C@H]1CCc2ccccc2N(CC(=O)O)C1=O` [benazepril], in test [1], the “iAng II levels in cardiac myocytes” value amounted to 0.55±0.02 fmole/mg heart wt and the “iAng II synthesis, blocked or not (result in words)” value is “not”. Besides, in test [2], the “DHE fluorescence, Mean” value came to 51.4 Arbitrary units and the “superoxide production / oxidative stress” value was “reduces oxidative stress”. For the same compound, in test [3], the “Caspase-3 staining, Mean” value is given as 21 positive cells/mm^2 and the “TUNEL assay, Mean” value is reported as 27 positive cells/mm^2. Besides, in test [4], the “degree of fibrosis (average grade)” value came to 0.88 grade and the “diabetes-induced cardiac fibrosis (result in words)” value is on record as “partially inhibited”.
